# Measurements as given in US4948807A, “Phenyl carbamates” (priority 1985, dated 1990).
# Where two headings read alike, the source gives them in different places.
# Tests used:
# acetylcholinesterase [1] = conditions: compared with the monoquaternary molecules; cited from earlier work
# acetylcholinesterase [2] = molecular target: T1, acetylcholinesterase (Mus musculus, UniProt P21836); experiment: biochemical; format: biochemical
# T1 construct: A solubilized preparation of acetylcholinesterase was prepared from mouse whole brain (minus cerebellum); from tissue; host or cells: mouse whole brain (minus cerebellum), membrane pellet solubilized with 1% Triton
# T1 sequence (P21836 32-614): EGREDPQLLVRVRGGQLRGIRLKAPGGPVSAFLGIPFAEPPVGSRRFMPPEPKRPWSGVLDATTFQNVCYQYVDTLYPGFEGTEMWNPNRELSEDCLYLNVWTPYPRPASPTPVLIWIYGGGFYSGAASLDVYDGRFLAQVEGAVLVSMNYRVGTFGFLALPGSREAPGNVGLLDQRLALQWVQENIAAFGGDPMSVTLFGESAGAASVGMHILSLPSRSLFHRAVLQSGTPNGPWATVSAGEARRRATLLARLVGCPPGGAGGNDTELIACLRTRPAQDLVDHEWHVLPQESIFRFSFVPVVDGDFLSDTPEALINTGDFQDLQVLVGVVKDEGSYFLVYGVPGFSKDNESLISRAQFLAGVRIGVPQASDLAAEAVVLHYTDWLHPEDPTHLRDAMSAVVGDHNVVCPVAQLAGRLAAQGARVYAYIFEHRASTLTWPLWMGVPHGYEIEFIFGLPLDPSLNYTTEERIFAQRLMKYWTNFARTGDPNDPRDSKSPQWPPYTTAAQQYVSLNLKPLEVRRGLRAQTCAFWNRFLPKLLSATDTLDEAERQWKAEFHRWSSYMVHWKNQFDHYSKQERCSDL
# Protocol: A solubilized preparation of acetylcholinesterase was prepared from mouse whole brain (minus cerebellum). The brain was homogenized with (100 mg/ml) phosphate buffer; pH 8.0, centrifuged, the supernatant discarded, and the pellet mixed with a similar volume as above of buffer pH 8.0 plus 1% Triton; mixed, centrifuged and the supernatant which contained most of the solubilized enzyme, was used for the subsequent determinations of anticholinesterase activity.
# The activity of the enzyme (rate of hydrolysis of substrate, acetylthiocholine) was measured using at least 4 different concentrations of substrate, and at least 3 different concentrations of each inhibitor. The enzyme was incubated with inhibitor for periods ranging for 2-180 mins. at 37° C., substrate was then added, and its rate of hydrolysis measured by the spectrophotometric method of Ellman et al. (1961).
# [3] = test system: brain acetylcholinesterase; conditions: for Relative potency to physostigmine after oral administration / % cholinesterase inhibition 3 hours after s.c. administration / Relative potency to physostigmine after subcut. (s.c.) administration: mouse brain; for Relative potency to physostigmine after oral administration / Relative potency to physostigmine after subcut. (s.c.) administration: physostigmine = 100
# Protocol: The effect of each compound on brain acetylcholinesterase in vivo was measured, after subcutaneous or oral administration to mice. Animals were sacrificed, at different times ranging from 0.25-8 hours after drug administration. The brain was rapidly removed, and the enzyme acetylcholinesterase extracted and solubilized with 0.1% Triton, and its ability to hydrolyse acetylthiocholine assessed as described above (in vitro experiments), in comparison with the enzyme removed from mice injected with normal saline.
# in vivo = conditions: mouse, in vivo
# Protocol: Mice were given one of at least three different doses of each compound, orally or subcutaneously, a minimum of 10 mice allotted to each dose. The number of animals which died at each dose within 3 hours was determined.
# This experiment was repeated after the animals had been pretreated with atropine sulphate, which blocks both peripheral and central muscarinic receptors.
# What is important is the safety of the drugs and the presence and severity of side effects that may occur at therapeutic doses. A commonly-used measure of drug safety is the therapeutic index--or LD50 /ED50 [formula]
# It is assumed that the therapeutic effect of these anticholinesterase agents results from an elevation of brain cholinergic activity. This in turn, should be related to the degree of inhibition of acetylcholinesterase. For the purpose of the computation of the denominator of the therapeutic ratio, there is used the dose of drug that inhibits the activity of acetylcholinesterase by 50%. […] The numerator is the dose found to kill 50% of the animals within […] of a subcutaneous injection.
# [4] = in vivo; cited from earlier work
# [5] = eye drops; cited from earlier work
# [6] = test system: respiratory depressant effects of morphine; format: in vivo; conditions: rabbits
# Protocol: Different doses of the carbamate compounds were injected intravenously with morphine in rabbits Respiration rate, arterial blood gas tensions and pH were monitored continuously before and after drug administration for 4-5 hours. In another series of experiments the effect of the anticholinesterase drugs was assessed on the analgesic effect of opiates in rabbits after application of a nociceptive stimulus, i.e. electrical stimulation of the sciatic nerve.
# [7] = in vivo; cited from earlier work; remark: listed apart in the source
# [8] = cited from earlier work; for penetration of the central nervous system: in vivo; for absorption from the gastro-intestinal tract: oral
# tardive dyskinesias = conditions: injected intravenously; cited from earlier work
# Huntingdon's chorea = conditions: injections; cited from earlier work
# [9] = test system: acetylcholinesterase in the cerebro-spinal fluid; conditions: patients with Alzheimer's disease; Thal et al. 1983; cited from earlier work
# [10] = incubation of enzyme with inhibitor, 37° C.
# [11] = Ratio whose head is drawing 10 (Table 3; oral LD50 compared with s.c. LD50), mice, oral versus s.c.
# [12] = sc, Therapeutic ratio LD50/ED50 s.c., mice, ED50 = dose inhibiting brain acetylcholinesterase by 50%
structure (smiles),measurement,setting,value
CC[N+](CC)(CCNC(=O)C(=O)NCC[N+](CC)(CC)Cc1ccccc1Cl)Cc1ccccc1Cl [Ambenonium],selectivity for acetylcholinesterase over butyrylcholinesterase,acetylcholinesterase [1],more selective inhibitors of acetylcholinesterase than butyrylcholinesterase
CN(CCCCCCCCCCN(C)C(=O)Oc1cccc([N+](C)(C)C)c1)C(=O)Oc1cccc([N+](C)(C)C)c1 [Demacarium],selectivity for acetylcholinesterase over butyrylcholinesterase,acetylcholinesterase [1],more selective inhibitors of acetylcholinesterase than butyrylcholinesterase
"CNC(=O)Oc1cccc(C(C)N(C)C)c1 (centres unmarked) [Miotine, reference compound]",IC50,acetylcholinesterase [2],13 nM
same,Time of peak activity,acetylcholinesterase [2]; [10],30 min
same,Relative potency to physostigmine after oral administration,[3],300
same,% cholinesterase inhibition 3 hours after s.c. administration,[3],5%
same,Relative potency to physostigmine after subcut. (s.c.) administration,[3],100
same,selectivity ratio,in vivo; [11],1.2
same,LD50 at 3 h,in vivo; sc,4.5 µmol/kg
same,selectivity ratio,in vivo; [12],4.9
same,insecticidal activity,[4],claimed to be an insecticide
same,myopic activity,[5],myopic agent
"CNC(=O)Oc1ccc2c(c1)[C@]1(C)CCN(C)[C@@H]1N2C [Physostigmine, reference compound]",IC50,acetylcholinesterase [2],11 nM
same,Time of peak activity,acetylcholinesterase [2],30 min
same,duration of significant brain enzyme inhibition (>30%),"[3]; mouse, in vivo",less than 2 hours
same,LD50 at 3 h,in vivo; sc,3 µmol/kg
same,duration of antagonism of the respiratory depressant effect of morphine,[6]; 0.1-0.2 mg/kg,30 to 60 min
same,muscle fasciculations,[6]; with morphine,fasciculations are marked at the higher dose
same,half-life,[7],20 to 40 min
same,penetration of the central nervous system,[8],readily enters the brain
same,absorption from the gastro-intestinal tract,[8],irregular and unpredictable
same,improvement of tardive dyskinesias,tardive dyskinesias,significant but short lived improvement in a proportion of patients
same,benefit in Huntingdon's chorea,Huntingdon's chorea,some benefit
same,block of acetylcholinesterase in cerebro-spinal fluid at dose giving maximum improvement in short term memory,[9],50%
"CCCNC(=O)Oc1cccc(C(C)N(C)C)c1 (centres unmarked) [RA15, N-propyl-3[1-(dimethylamino)ethyl]phenyl carbamate]",IC50,acetylcholinesterase [2],110 nM
same,Time of peak activity,acetylcholinesterase [2]; [10],120 min
same,duration of significant brain enzyme inhibition (>30%),[3]; at ED50 dose,more than 3 hours
same,relative in vivo activity compared to physostigmine versus in vitro data,[3]; comparison of Table 1 with Table 2,relatively more active in vivo compared to physostigmine than one would expect from the in vitro data
same,Relative potency to physostigmine after oral administration,[3],32
same,% cholinesterase inhibition 3 hours after s.c. administration,[3],37%
same,Relative potency to physostigmine after subcut. (s.c.) administration,[3],33
same,duration of brain acetylcholinesterase inhibition compared with physostigmine or miotine,"[3]; parenteral administration, in words",significantly longer duration
same,selectivity ratio,"in vivo; Degree of protection afforded by pretreatment with atropine, ratio of LD50 after pretreatment with atropine sulphate 5 mg/kg to LD50 of drug alone",4.1
same,selectivity ratio,in vivo; [11],4.5
same,LD50 at 3 h,in vivo; sc,31 µmol/kg
same,selectivity ratio,in vivo; [12],11.1
same,duration of significant antagonism of the respiratory depressant effects of morphine,[6]; depending on drug and dose,3 to 5 h
CN(C)C(=O)Oc1cccc([N+](C)(C)C)c1 [neostigmine],penetration of the central nervous system,[8],do not penetrate the central nervous system to any significant extent
same,absorption from the gastro-intestinal tract,[8],only poorly absorbed from the gastro-intestinal tract
CN(C)C(=O)Oc1ccc[n+](C)c1 [pyridostigmine],penetration of the central nervous system,[8],do not penetrate the central nervous system to any significant extent
same,absorption from the gastro-intestinal tract,[8],only poorly absorbed from the gastro-intestinal tract
